Test results: patent US20040219238A1, “Remedies” (priority 2001, published 2004)
Marks after values point to notes of the source that are not given here.

How the values were obtained:
[1] = type: in vivo; conditions: mouse, 1 g/kg in a single dose
Experimental: No toxicity is found even when the above-mentioned effective ingredient usable in the present invention is administered in an amount effective for the exhibition of its action.

[2] = system: NGF; experiment: NGF content in rat tissues after forced oral administration of xanthohumol (enzyme immunoassay); type: in vivo, rat (SD); conditions: excised on fifth day, average ± standard error, n=4
Experimental: (§1) (2) Male SD rats were purchased from Japan SLC, Inc., and used for an experiment from 7-week old after preliminary rearing. Xanthohumol described in Example 1 was suspended in distilled water, and the rats were subjected to forced oral administration of the suspension at a ratio of 3 and 10 mg of xanthohumol respectively per 1 kg of body weight. In addition, the suspension was intraperitoneally administered at a ratio of 1, 3 or 10 mg of xanthohumol. A control group was administered with distilled water in the same manner as above. In either group, four rats were administered once a day for consecutive days. In the case of the forced oral administration, the submandibular gland and the brain were excised on the fifth day from the beginning of administration. In the case of the intraperitoneal administration, ischiadic nerve and gastrocneminal muscle were excised at 4 hours after the end of administration on the third day. The excised tissues were homogenized and centrifuged, and the NGF contents in the supematant were determined by enzyme immunoassay method (manufactured by Roche).
(§2) The numbers in the tables represent an average value ± standard error for the four cases. In addition, an asterisk * symbol means that the group has a significant difference at a significance level of 5% or less as compared to the control group according to Student-t test, and a triple asterisk *** symbol means that the group similarly has a significant difference at a significance level of 0.1% or less.

[3] = system: NGF; experiment: NGF content in rat tissues after intraperitoneal administration of xanthohumol (enzyme immunoassay); type: in vivo, rat (SD); conditions: excised 4 hours after administration on third day, average ± standard error
Experimental: as §1, §2

[4] = Water maze test in rats with ibotenic acid-induced learning and memory disorder; type: in vivo, rat (Wistar); conditions: forced oral 10 mg/kg once a day, average ± standard error, n=9
Experimental: Male Wistar rats were purchased from Japan SLC, Inc., and used for an experiment from 7-week old after preliminary rearing. Ibotenic acid was administered intracerebrally to cause a learning and memory disorder. Nine rats were used for each group, and administration was begun one week after the administration of ibotenic acid. Xanthohumol of Example 1 was suspended in distilled water, and the rats were subjected to forced oral administration with the suspension at a ratio of 10 mg of xanthohumol per 1 kg of body weight. A control group was administered with distilled water in the same manner as above. The rats were administered once a day for consecutive days. A water maze test was carried out on and after the seventh day from the beginning of the administration to evaluate ability of recognizing spaces and directions.
The water maze test method was carried out as follows. Water of about 22° C. was charged in a large-scaled water vessel. A platform was set at a height of 2 cm below the water level, and rats were made to enter into water. The rats in water swim around so as to escape from water and take refuge in the platform. The time period from entering into water to taking refuge in the platform was recorded. After taking the refuge, the rats were made to observe surrounding environments on the platform. […]

[5] = forced oral 10 mg/kg once a day
[6] = intraperitoneal 1 mg/kg once a day
[7] = intraperitoneal 3 mg/kg once a day
[8] = intraperitoneal 10 mg/kg once a day

COc1cc(O)c(CC=C(C)C)c(O)c1C(=O)/C=C/c1ccc(O)cc1 [Xanthohumol, xanthohumol]
cases of deaths [1]: no cases of deaths are found | NGF Content in Brain of Rat ([2]; forced oral 3 mg/kg once a day): 508.2 ± 95.1 pg/g tissue | NGF Content in Submandibular Gland of Rat ([2]; forced oral 3 mg/kg once a day): 8.88 ± 0.98*** ng/g tissue | NGF Content in Brain of Rat [2, 5]: 524.9 ± 200.7 pg/g tissue | NGF Content in Submandibular Gland of Rat [2, 5]: 13.39 ± 0.65*** ng/g tissue | NGF Content in Gastrocneminal Muscle of Rat [3, 6]: 48.0 ± 3.4 pg/g tissue | NGF Content in Ischiadic Nerve of Rat [3, 6]: 386.4 ± 30.1* pg/g tissue | NGF Content in Gastrocneminal Muscle of Rat [3, 7]: 53.9 ± 4.0 pg/g tissue | NGF Content in Ischiadic Nerve of Rat [3, 7]: 351.6 ± 26.8 pg/g tissue | NGF Content in Gastrocneminal Muscle of Rat [3, 8]: 56.8 ± 3.3 pg/g tissue | NGF Content in Ischiadic Nerve of Rat [3, 8]: 445.7 ± 59.1 pg/g tissue | Time Period from entering water to taking refuge in the platform, First Trial ([4]; on and after seventh day): 140.7 ± 14.7 s | Time Period from entering water to taking refuge in the platform, Second Trial ([4]; second trial on next day): 71.3 ± 10.8 s
